This is an account of results in patent US12383555B2, “Methods of treating cancers” (Foghorn Therapeutics Inc., priority 2020, dated 2025).

The subject of data set [1] is AML cell lines (OCIAML5). Put plainly: Cancer cell line growth inhibition (Cell-titer glo, GI50, day 3 and day 7), compound 17. The data set is classed as cell-based. As to conditions: compound 17, 0 to 10 micromolar.
The subject of data set [2] is AML cell lines (OCIAML5, KASUMI1). Put plainly: Cancer cell line growth inhibition (Cell-titer glo, GI50, day 3 and day 7), compound 18. The class given is cell-based. As to conditions: compound 18, 0 to 10 micromolar. Here is the method: Procedure: Uveal melanoma cell lines (92-1, MP41, MP38, MP46), prostate cancer cell lines (LNCAP), lung cancer cell lines (NCIH1299), and immortalized embryonic kidney lines (HEK293T) were plated into 96 well plates with growth media (see Table 1). […] Cells were incubated at 37° C. for 3 days. After 3 days of treatment, the media was removed from the cells, and 30 microliters of TrypLE (Gibco) was added to cells for 10 minutes. Cells were detached from the plates and resuspended with the addition of 170 microliters of growth media. Cells from two DMSO-treated control wells were counted, and the initial number of cells plated at the start of the experiment, were re-plated into fresh-compound containing plates for an additional four days at 37° C. At day 7, cells were harvested as described above.
On day 3 and day 7, relative cell growth was measured by the addition of Cell-titer glo (Promega), and luminescence was measured on an Envision plate reader (Perkin Elmer).
At the time of cell splitting on days 3 and 7, cells were split into new 96 well plates, and fresh compound was added four hours after re-plating.
Procedure: All cell lines described above in Example 2 were also tested as described above with compound 18. In addition, the following cell lines were also tested as follows. […]

Data set [3] is described as follows: Tolerability by % body weight change in EOL-1 or MV4;11 tumor-bearing mice. The class given is in vivo. To be noted: 50 mg/kg daily for 21 days, oral route; MV4;11 and EOL-1 models. How it is done:
(§1) Method: BALB/c Nude mice (Beijing Anikeeper Biotech, Beijing) were inoculated subcutaneously on the right flank with the single cell suspension of EOL-1 or MV4;11 human AML tumor cells (1×10^7) in 100 μL IDMD in 10% Fetal Bovine Serum (FBS). When tumor size reach ˜100 mm3, the mice were randomized into either Vehicle group [20% HP-β-CD) or Treatment group: Compound 19 at 50 mg/kg daily for 21 days per oral route. All dose volumes were adjusted by body weights in terms of mg/kg.

Data set [4] concerns EOL-1 human AML tumor cells. Put plainly: Subcutaneous EOL-1 tumor growth in vivo. Also noted: species or system BALB/c Nude mice. As to conditions: 50 mg/kg daily for 21 days, oral route. Here is the method: as §1
For data set [5], the system named is MV4;11 human AML tumor cells. Put plainly: Subcutaneous MV4;11 tumor growth in vivo. The arrangement: species or system BALB/c Nude mice. To be noted: 50 mg/kg daily for 21 days, oral route. How it is done:
as §1

A short description of data set [6]: Tolerability by % body weight change in OCI-AML2 tumor-bearing mice. To be noted: 1.5 mg/kg daily for 21 days, oral route. The class given is in vivo. How it is done:
(§2) Method: SCID mice (Charles River, Wilmington) were inoculated subcutaneously on the right flank with the single cell suspension of OCI-AML2 human AML tumor cells (1×10^7) in 100 μL in RPMI-1640 media. When tumor size reach ˜100 mm^3, the mice were randomized into either Vehicle group (20% HP-β-CD) or Treatment group (Compound 20 at 1.5 mg/kg daily for 21 days per oral route). All dose volumes were adjusted by body weights in terms of mg/kg.

Data set [7] relates to OCI-AML2 human AML tumor cells. Nature of the data set: Subcutaneous OCI-AML2 tumor growth in vivo. The arrangement: species or system SCID mice. To be noted: 1.5 mg/kg daily for 21 days, oral route; tumor carries a DNMT3A mutation. Here is the method: as §2

With `CSCC[C@H](NC(=O)c1ccc(N)cc1)C(=O)Nc1nc(-c2cccc(-c3ccncc3)c2)cs1` [Compound 17, 4-amino-N-[(1S)-3-methylsulfanyl-1-[[4-[3-(4-pyridyl)phenyl]thiazol-2-yl]carbamoyl]propyl]benzamide], the “Duration of inhibition of the AML cell lines (FIG. 1)” value in data set [1] is recorded as “maintained through day 7”.

Consider `CSCC[C@H](NC(=O)c1ccn(S(C)(=O)=O)c1)C(=O)Nc1nc(-c2cccc(-c3ccncc3)c2)cs1` [Compound 18, (S)-1-(methylsulfonyl)-N-(4-(methylthio)-1-oxo-1-((4-(3-(pyridin-4-yl)phenyl)thiazol-2-yl)amino)butan-2-yl)-1H-pyrrole-3-carboxamide], for which the “Duration of inhibition of the AML cell lines (FIG. 2)” value in data set [2] is listed as “maintained through day 7”. Also, the “Sensitivity of the AML cell lines relative to the other tested cell lines (GI50, FIG. 2)” value in data set [2] (day 3 and day 7) is on record as “more sensitive to BRG1/BRM inhibition than the other tested cell lines”.

In the case of `C[C@@H]1CN(c2cccc(-c3csc(NC(=O)CNC(=O)c4ccn(C(C)(C)C)c4)n3)n2)C[C@H](C)O1` [Compound 19, 1-(tert-butyl)-N-(2-((4-(6-(cis-2,6-dimethylmorpholino)pyridin-2-yl)thiazol-2-yl)amino)-2-oxoethyl)-1H-pyrrole-3-carboxamide], the “Tolerability based on % body weight change” value in data set [3] is “well tolerated”. The “Effect on EOL-1 tumor growth (FIG. 5)” value in data set [4] is reported as “delayed the growth”. The “Effect on MV4;11 tumor growth (FIG. 4)” value in data set [5] was “tumor stasis”.

As to `COC[C@H](NC(=O)c1ccn(S(C)(=O)=O)c1)C(=O)Nc1nc(-c2cccc(N3C[C@@H](C)O[C@@H](C)C3)n2)cs1` [Compound 20, N—((S)-1-((4-(6-(cis-2,6-dimethylmorpholino)pyridin-2-yl)thiazol-2-yl)amino)-3-methoxy-1-oxopropan-2-yl)-1-(methylsulfonyl)-1H-pyrrole-3-carboxamide], the “Tolerability based on % body weight change” value in data set [6] was “well tolerated”. For the same molecule, the “Effect on OCI-AML2 tumor growth (FIG. 6)” value in data set [7] is “inhibited the growth”.
